These results are taken from ChEMBL document CHEMBL3044641, “Design and synthesis of some novel 3-[5-(4-substituted) phenyl-1,3,4-oxadiazole-2yl]-2-phenylquinazoline-4(3H)-ones as possible anticonvulsant agent” (Med Chem Res, 2011).

Series [1] concerns Mus musculus. Briefly: Anticonvulsant activity in Mus musculus albino (mouse) assessed as protection against maximal electroshock-induced seizure at 300 mg/kg, ip after 0.5 hr. The series is classed as functional, organism-based. Details: dose 300 mg/kg. (In general: In the maximal electroshock model the usual endpoint is tonic extension of the hind limbs.)
Series [2] has as its system Mus musculus. Briefly: Anticonvulsant activity in Mus musculus albino (mouse) assessed as protection against subcutaneous metrazole-induced seizure at 300 mg/kg, ip after 0.5 hr. The arrangement: dose 300 mg/kg. The series is classed as functional, organism-based.
Series [3] has as its system Mus musculus. Briefly: Neurotoxicity in ip dosed Mus musculus albino (mouse) assessed as minimal motor impairment after 4 hr by rotarod test. The series is classed as toxicity, organism-based. The following applies: in vivo. (In general: Falling from the rotarod earlier than controls is read as motor impairment.)
Series [4] has as its system Mus musculus. Briefly: Anticonvulsant activity in Mus musculus albino (mouse) assessed as protection against subcutaneous metrazole-induced seizure at 300 mg/kg, ip after 4 hr. Details: dose 300 mg/kg. Format: functional, organism-based.
The test system of series [5] is Mus musculus. Briefly: Neurotoxicity in ip dosed Mus musculus albino (mouse) assessed as minimal motor impairment after 0.5 hr by rotarod test. Format: toxicity, organism-based. The following applies: in vivo.
Series [6] deals with Mus musculus. Briefly: Anticonvulsant activity in Mus musculus albino (mouse) assessed as protection against maximal electroshock-induced seizure at 300 mg/kg, ip after 4 hr. The arrangement: dose 300 mg/kg. The series is classed as functional, organism-based.
Series [7] relates to Mus musculus. Nature of the series: Anticonvulsant activity in ip dosed Mus musculus albino (mouse) assessed as protection against maximal electroshock-induced seizure after 0.5 hr. The series is classed as functional. The following applies: read-out: MED.
Series [8] concerns Mus musculus. Nature of the series: Neurotoxicity in Mus musculus albino (mouse) assessed as minimal motor impairment at 300 mg/kg, ip after 0.5 hr by rotarod test. The series is classed as toxicity, organism-based. The arrangement: dose 300 mg/kg, route intraperitoneal. Conditions: in vivo.
In series [9] the test system is Mus musculus. Briefly: Neurotoxicity in Mus musculus albino (mouse) assessed as minimal motor impairment at 300 mg/kg, ip after 4 hr by rotarod test. Format: toxicity, organism-based. Details: dose 300 mg/kg, route intraperitoneal. Conditions: in vivo.
In series [10] the test system is Mus musculus. Briefly: Anticonvulsant activity in ip dosed Mus musculus albino (mouse) assessed as protection against maximal electroshock-induced seizure after 4 hr. The series is classed as functional. Conditions: read-out: MED.
Series [11] has as its system Mus musculus. Briefly: Anticonvulsant activity in ip dosed Mus musculus albino (mouse) assessed as protection against subcutaneous metrazole-induced seizure after 0.5 hr. The following applies: read-out: MED. Format: functional.
Series [12] concerns Mus musculus. Briefly: Anticonvulsant activity in ip dosed Mus musculus albino (mouse) assessed as protection against subcutaneous metrazole-induced seizure after 4 hr. The series is classed as functional. Conditions: read-out: MED.

Active and inactive are the calls of the source. The calls are words filed in the database; no cut-off is given here.

As for `O=c1c2ccccc2nc(-c2ccccc2)n1-c1nnc(-c2ccc([N+](=O)[O-])cc2)o1`, the outcome in the series on Mus musculus [1], with Mus musculus [2], in the series on Mus musculus [4] and with Mus musculus [6] was inactive. For the same compound, the Activity with Mus musculus [3] and in the series on Mus musculus [5] was 300 mg/kg throughout.
As to `O=c1c2ccccc2nc(-c2ccccc2)n1-c1nnc(-c2ccccc2)o1`, in the series on Mus musculus [7], the minimal effective dose stood at 300 mg/kg. The Activity result in the series on Mus musculus [8] and in the series with Mus musculus [9] was “Non-toxic” each time. Further, the result in the series with Mus musculus [2], with Mus musculus [4] and in the series on Mus musculus [6] was inactive.
Consider `COc1ccc(-c2nnc(-n3c(-c4ccccc4)nc4ccccc4c3=O)o2)cc1`, for which the outcome in the series with Mus musculus [1], in the series with Mus musculus [2], with Mus musculus [4] and in the series with Mus musculus [6] was inactive. Moreover, the Activity in the series with Mus musculus [3] and in the series with Mus musculus [5] was 300 mg/kg in each case.
As for `Cc1ccc(-c2nnc(-n3c(-c4ccccc4)nc4ccccc4c3=O)o2)cc1`, the Activity entry in the series on Mus musculus [8] was “Non-toxic”; with Mus musculus [3], 300 mg/kg. Moreover, the result in the series with Mus musculus [1], with Mus musculus [2], in the series with Mus musculus [4] and in the series on Mus musculus [6] was inactive.
`O=c1c2ccccc2nc(-c2ccccc2)n1-c1nnc(-c2ccc(Cl)cc2)o1`: the Activity entry in the series on Mus musculus [8] and in the series with Mus musculus [9] was “Non-toxic” each time. Moreover, the outcome in the series with Mus musculus [1], with Mus musculus [2], in the series with Mus musculus [4] and with Mus musculus [6] was inactive.
Turning to `O=c1c2ccccc2nc(-c2ccccc2)n1-c1nnc(-c2ccc(F)cc2)o1`, the minimal effective dose with Mus musculus [7] and in the series on Mus musculus [10] was 300 mg/kg throughout. In addition, the Activity entry was “Non-toxic” in the series with Mus musculus [9] and 300 mg/kg with Mus musculus [5]. Further, the outcome in the series on Mus musculus [2] and in the series with Mus musculus [4] was inactive.
With `O=C1NC(=O)C(c2ccccc2)(c2ccccc2)N1` [PHENYTOIN], the minimal effective dose in the series with Mus musculus [7] and in the series on Mus musculus [10] was 30 mg/kg each time. The outcome in the series on Mus musculus [2] and with Mus musculus [4] was inactive. Further, the Activity in the series on Mus musculus [3] and in the series with Mus musculus [5] was 100 mg/kg in each case.
As for `NC(=O)N1c2ccccc2C=Cc2ccccc21` [CARBAMAZEPINE], the minimal effective dose was determined as 30 mg/kg in the series with Mus musculus [7], 100 mg/kg in the series with Mus musculus [11], 100 mg/kg in the series on Mus musculus [10] and 300 mg/kg in the series on Mus musculus [12]. Also, the Activity in the series with Mus musculus [3] is 300 mg/kg; in the series on Mus musculus [5], 100 mg/kg.
